Test results published in patent US12448388B2, “PRMT5 inhibitors and uses thereof” (Gilead Sciences, Inc., priority 2023, dated 2025).

tested on: HCT116 MTAP-deleted cell lines; test: Cell viability assay (CellTiter-Glo, 7 days), HCT116 MTAP-deleted; assay type: cell-based; settings: Homo sapiens, HCT-116; cell viability assay, HCT116 MTAP-deleted; class symbols; read-out: CC50
Outline: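 First, compounds are serially diluted in DMSO and dispensed into plates, which are frozen until seeding. Next, cells are added and incubated 7 days at 37 °C, 5% CO2, 90% humidity. Finally, CellTiter-Glo reagent is added and luminescence is measured to derive CC50.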

| Structure (SMILES) | CC50 |
| --- | --- |
| Cn1cc(N(Cc2ccc(C(F)(F)F)cc2F)C(=O)c2cc3c(cc2F)nc(N)c2cncn23)c(Cl)n1 [Ff-421, 4-amino-N-(3-chloro-1-methyl-pyrazol-4-yl)-7-fluoro-N-[[2-fluoro-4-(trifluoromethyl)phenyl]methyl]imidazo[1,5-a]quinoxaline-8-carboxamide] | < 100 nM |
| CO[C@@H]1Cc2cc(Br)ccc2[C@@H]1N(C)C(=O)c1cc2c(cc1F)nc(N)c1cncn12 [Ff-579, 4-amino-N-((1S,2R)-5-bromo-2-methoxy-2,3-dihydro-1H-inden-1-yl)-7-fluoro-N-methylimidazo[1,5-a]quinoxaline-8-carboxamide] | < 100 nM |
| Nc1nc2cc(F)c(C(=O)N3CCC[C@@H]4Oc5cc(-c6cnn(C(F)(F)F)c6)ccc5[C@@H]43)cc2n2cncc12 [Ff-655, (4-amino-7-fluoroimidazo[1,5-a]quinoxalin-8-yl)((4aS,9bS)-7-(1-(trifluoromethyl)-1H-pyrazol-4-yl)-3,4,4a,9b-tetrahydrobenzofuro[3,2-b]pyridin-1(2H)-yl)methanone] | < 100 nM |
| COc1cc(-c2cnn(C(F)F)c2)ccc1CN(C)C(=O)c1cc2c(cc1F)nc(N)c1cncn12 [Ff-553, 4-amino-N-(4-(1-(difluoromethyl)-1H-pyrazol-4-yl)-2-methoxybenzyl)-7-fluoro-N-methylimidazo[1,5-a]quinoxaline-8-carboxamide] | 100 to 1000 nM |
| Nc1nc2cc(F)c(C(=O)N(Cc3ccc(C(F)(F)F)cn3)C3CC(F)(F)C3)cc2n2cncc12 [Ff-415, 4-amino-N-(3,3-difluorocyclobutyl)-7-fluoro-N-[[5-(trifluoromethyl)-2-pyridyl]methyl]imidazo[1,5-a]quinoxaline-8-carboxamide] | < 100 nM |
| Cc1ncn2c1c(N)nc1cc(F)c(C(=O)N3CCC[C@@H]4Oc5cc(F)ccc5[C@@H]43)cc12 [Fg-26, (4-amino-7-fluoro-3-methylimidazo[1,5-a]quinoxalin-8-yl)((4aS,9bS)-7-fluoro-3,4,4a,9b-tetrahydrobenzofuro[3,2-b]pyridin-1(2H)-yl)methanone] | < 100 nM |
| COc1cc(-c2cnn(C(F)(F)F)c2)ccc1CN(C)C(=O)c1cc2c(cc1F)nc(N)c1cncn12 [Ff-554, 4-amino-N-(4-(1-(trifluoromethyl)-1H-pyrazol-4-yl)-2-methoxybenzyl)-7-fluoro-N-methylimidazo[1,5-a]quinoxaline-8-carboxamide] | 100 to 1000 nM |
| CN(C(=O)c1cc2c(cc1F)nc(N)c1cncn12)[C@@H]1COc2cc(C#CC3(C)CC3)ccc21 [Ff-514, (S)-4-amino-7-fluoro-N-methyl-N-(6-((1-methylcyclopropyl)ethynyl)-2,3-dihydrobenzofuran-3-yl)imidazo[1,5-a]quinoxaline-8-carboxamide] | 100 to 1000 nM |
| Nc1nc2cc(F)c(C(=O)N3CC(C(F)(F)F)OCC3c3ccc(C(F)(F)F)cn3)cc2n2cncc12 (stereo not shown) [Ff-401] | 100 to 1000 nM |
| Nc1nc2cc(F)c(C(=O)N3CCC[C@@H]4Oc5cc(C(F)(F)F)ccc5[C@@H]43)cc2n2c(Cl)ncc12 (single isomer, unassigned) [Ff-646] | < 100 nM |
| CN(Cc1nc(-c2cnn(C(F)(F)F)c2)cs1)C(=O)c1cc2c(cc1F)nc(N)c1cncn12 [Ff-550, 4-amino-7-fluoro-N-methyl-N-((4-(1-(trifluoromethyl)-1H-pyrazol-4-yl)thiazol-2-yl)methyl)imidazo[1,5-a]quinoxaline-8-carboxamide] | 100 to 1000 nM |
| CN(C(=O)c1cc2c(cc1F)nc(N)c1cncn12)C1COc2cc3c(cc21)CCC3 (stereo not shown) [Ff-459, 4-amino-7-fluoro-N-methyl-N-(3,5,6,7-tetrahydro-2H-indeno[5,6-b]furan-3-yl)imidazo[1,5-a]quinoxaline-8-carboxamide] | < 100 nM |
| C[C@@H]1CN(C(=O)c2ccc3nc(N)c4cncn4c3c2)[C@H]2c3cc(F)c(OC(F)(F)F)cc3C[C@H]2O1 (single isomer, unassigned) [Ff-628] | < 100 nM |

same assay, conditions: Homo sapiens, HCT-116; cell viability, HCT116 MTAP-deleted; class symbols; read-out: CC50

| Structure (SMILES) | CC50 |
| --- | --- |
| CN(C(=O)c1cc2c(cc1F)nc(N)c1cncn12)[C@@H](c1ccc(C(F)(F)F)cc1)C(F)F [Fb-9, (S)-4-amino-N-(2,2-difluoro-1-(4-(trifluoromethyl)phenyl)ethyl)-7-fluoro-N-methylimidazo[1,5-a]quinoxaline-8-carboxamide] | < 100 nM |
| CN(C(=O)c1cc2c(cc1F)nc(N)c1cncn12)[C@@H](c1ccc(OC(F)F)cc1F)C(F)F [Fb-10, (S)-4-amino-N-(1-(4-(difluoromethoxy)-2-fluorophenyl)-2,2-difluoroethyl)-7-fluoro-N-methylimidazo[1,5-a]quinoxaline-8-carboxamide] | < 100 nM |
| Cc1ncc2c(N)nc3ccc(C(=O)N4CCC5(CC4)C(=O)N(C)c4ccccc45)cc3n12 [Ff-64, 1′-(4-amino-1-methylimidazo[1,5-a]quinoxaline-8-carbonyl)-1-methylspiro[indoline-3,4′-piperidin]-2-one] | 100 to 1000 nM |
| Nc1nc2cc(Cl)c(C(=O)N3CCO[C@@H]4Cc5cc(C(F)(F)F)ccc5[C@@H]43)cc2n2cncc12 (racemic) [Ff-35, Racemic (4-amino-7-chloroimidazo[1,5-a]quinoxalin-8-yl)((4aS,9aR)-7-(trifluoromethyl)-2,3,9,9a-tetrahydroindeno[2,1-b][1,4]oxazin-4(4aH)-yl)methanone] | < 100 nM |
| C[C@@H]1CN(C(=O)c2cc3c(cc2F)nc(N)c2cncn23)[C@@H]2c3ccc(C(F)(F)F)cc3C[C@@H]2O1 (single isomer, unassigned) [Ff-78] | < 100 nM |
| Nc1nc2cc(F)c(C(=O)N3CCCC[C@@H]3c3ccc(C(F)(F)F)cc3)cc2n2cncc12 [Ff-139, (R)-(4-amino-7-fluoroimidazo[1,5-a]quinoxalin-8-yl)(2-(4-(trifluoromethyl)phenyl)piperidin-1-yl)methanone] | < 100 nM |
| Nc1nc2cc(F)c(C(=O)N3CCO[C@@H]4Cc5c(cc(F)c(Br)c5F)[C@@H]43)cc2n2cncc12 [Ff-161, (4-amino-7-fluoroimidazo[1,5-a]quinoxalin-8-yl)((4aS,9aR)-7-bromo-6,8-difluoro-2,3,9,9a-tetrahydroindeno[2,1-b][1,4]oxazin-4(4aH)-yl)methanone] | 100 to 1000 nM |
| Nc1nc2cc(F)c(C(=O)N3CCC[C@@H]4OCc5cc(-c6cnn(C7CC7)c6)ccc5[C@@H]43)cc2n2cncc12 (racemic) [Ff-297, Rac-(4-amino-7-fluoroimidazo[1,5-a]quinoxalin-8-yl)((4aS,10bS)-8-(1-cyclopropyl-1H-pyrazol-4-yl)-2,3,4,4a,6,10b-hexahydro-1H-isochromeno[4,3-b]pyridin-1-yl)methanone] | < 100 nM |
| Nc1nc2cc(F)c(C(=O)N3C[C@@H](F)C[C@@H]4Oc5cc(C(F)(F)F)ccc5[C@@H]43)cc2n2cncc12 [Ff-120, (4-amino-7-fluoroimidazo[1,5-a]quinoxalin-8-yl)((3S,4aS,9bS)-3-fluoro-7-(trifluoromethyl)-3,4,4a,9b-tetrahydrobenzofuro[3,2-b]pyridin-1(2H)-yl)methanone] | < 100 nM |
| Nc1nc2ccc(C(=O)N3CCO[C@@H]4Cc5cc(Br)ccc5[C@@H]43)cc2n2cncc12 (racemic) [Ff-37, Racemic (4-aminoimidazo[1,5-a]quinoxalin-8-yl)((4aS,9aR)-7-bromo-2,3,9,9a-tetrahydroindeno[2,1-b][1,4]oxazin-4(4aH)-yl)methanone] | 100 to 1000 nM |
| CN(C(=O)c1cc2c(cc1F)nc(N)c1cncn12)[C@@H]1COCc2nc(C(F)(F)F)ccc21 [Ff-281, (S)-4-amino-7-fluoro-N-methyl-N-(2-(trifluoromethyl)-5,8-dihydro-6H-pyrano[3,4-b]pyridin-5-yl)imidazo[1,5-a]quinoxaline-8-carboxamide] | < 100 nM |
| Nc1nc2cnc(C(=O)N3CCO[C@@H]4Cc5cc(OC(F)(F)F)c(F)cc5[C@@H]43)cc2n2cncc12 [Ff-178, (4-aminoimidazo[1,5-a]pyrido[3,4-e]pyrazin-8-yl)((4aS,9aR)-6-fluoro-7-(trifluoromethoxy)-2,3,9,9a-tetrahydroindeno[2,1-b][1,4]oxazin-4(4aH)-yl)methanone] | < 100 nM |
| CN(C(=O)c1ccc2nc(N)c3cncn3c2c1)[C@@H]1COc2cc(C(F)(F)F)c(F)cc21 [Ff-353, (S)-4-amino-N-(5-fluoro-6-(trifluoromethyl)-2,3-dihydrobenzofuran-3-yl)-N-methylimidazo[1,5-a]quinoxaline-8-carboxamide] | < 100 nM |
| CN(C(=O)c1cc2c(cc1F)nc(N)c1cncn12)C1CCOc2cc(C(F)(F)F)ccc21 (stereo not shown) [Ff-40, 4-amino-7-fluoro-N-methyl-N-(7-(trifluoromethyl)chroman-4-yl)imidazo[1,5-a]quinoxaline-8-carboxamide] | 100 to 1000 nM |
| Nc1nc2cc(F)c(C(=O)N(Cc3ccc(OC(F)F)cc3F)C34CC(C3)C4)cc2n2cncc12 [Ff-265, 4-amino-N-(bicyclo[1.1.1]pentan-1-yl)-N-(4-(difluoromethoxy)-2-fluorobenzyl)-7-fluoroimidazo[1,5-a]quinoxaline-8-carboxamide] | < 100 nM |
| CN(C(=O)c1cc2c(cc1F)nc(N)c1cncn12)[C@@H]1COc2cc(Br)ccc21 [Ff-94, (S)-4-amino-N-(6-bromo-2,3-dihydrobenzofuran-3-yl)-7-fluoro-N-methylimidazo[1,5-a]quinoxaline-8-carboxamide] | < 100 nM |
| C[C@@H]1C[C@@H]2CCc3cc(C(F)(F)F)ccc3[C@@H]2N(C(=O)c2cc3c(cc2F)nc(N)c2cncn23)C1 (racemic) [Ff-322, Rac-(4-amino-7-fluoroimidazo[1,5-a]quinoxalin-8-yl)((3R,4aS,10bR)-3-methyl-8-(trifluoromethyl)-3,4,4a,5,6,10b-hexahydrobenzo[h]quinolin-1(2H)-yl)methanone] | < 100 nM |
| CC1(C)C[C@@H]2Oc3cc(OC(F)(F)F)ccc3[C@@H]2N(C(=O)c2cc3c(cn2)nc(N)c2cncn23)C1 (racemic) [Ff-262, Rac-(4-aminoimidazo[1,5-a]pyrido[3,4-e]pyrazin-8-yl)((4aS,9bS)-3,3-dimethyl-7-(trifluoromethoxy)-3,4,4a,9b-tetrahydrobenzofuro[3,2-b]pyridin-1(2H)-yl)methanone] | 100 to 1000 nM |
